Holding throughout (assay type): biochemical
Experiment [1] concerns the target T1, Bovine pancreatic Trypsin (Bos taurus, UniProt P00760).
T1 construct: from tissue; host or cells: bovine pancreas
T1 sequence (P00760 24-246): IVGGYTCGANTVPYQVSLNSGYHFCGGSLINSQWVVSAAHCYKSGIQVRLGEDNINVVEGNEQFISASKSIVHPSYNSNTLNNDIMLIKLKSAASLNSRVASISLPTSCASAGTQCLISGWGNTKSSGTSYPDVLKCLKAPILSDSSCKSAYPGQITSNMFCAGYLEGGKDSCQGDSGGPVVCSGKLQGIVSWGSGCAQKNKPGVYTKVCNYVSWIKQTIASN
Kind of experiment: Ki determination, bovine pancreatic trypsin (N-a-Benzoyl-L-Arg-pNA). The settings on record: 50 mM Tris-HCl, pH 8.2, 20 mM CaCl2; read-out: Experimentally Determined Ki, Trypsin. The protocol:
(§1) Protease inhibition was assayed according to published procedures with minor modifications using various proteases and specific chromogenic peptide p-nitroanilide substrates. Assays were performed in Costar ultra-low cluster 96-well microtiter plate (Costar Corning Corp., Cambridge Mass.). Each protease was incubated with various concentrations of the test compound for 15 min. at 37° C. or as otherwise indicated, in specific assay buffer, and the residual activity was then measured by addition of the substrate. p-Nitroaniline produced by the proteolysis was determined by measuring the change in absorbance at 405 nm on a SpectraMAX 340 plate reader (Molecular devices, Sunnyvale, Calif.).
(§2) 1. The inhibition constant, Ki is calculated from individual data points using the equation for a tight-binding inhibitor (See Beith, "Proteinase Inhibitors-Proceedings of 2nd Int. Res. Conference", Fritz, et al. eds, New York, p.4463-4469 (1974)):
(§3) vi /vo [((Ki '+[I]+[E]o)^2 -4 [I]o
(§4) [E]o)^1/2 (Ki '+[I]o -[E]o)]/2[E]o
(§5) where Ki ' is apparent inhibition constant; vi and vo are the inhibited and uninhibited rates, respectively; [I]o and [E]o are the total concentrations of inhibitor and enzyme, respectively.
(§6) [note: [E]o is determined by active site titration of enzyme]
(§7) The Ki values are obtained by correcting Ki ' values for the effect of substrate concentration according to: [formula]
(§8) 2. Other inhibition data (Ki >>[E]o), the Ki is calculated from using the equations for a competitive inhibitor: [formula]
Bovine pancreatic Trypsin (TPCK-treated) activity was determined by using N-a-Benzoyl-L-Arg-pNA in 50 mM Tris-HCl, pH 8.2, 20 mM CaCl2 (See Somorin, et al., J. Biochem. 85, 157-162 (1979)).
(§9) The inhibition constant (Ki) of the test compounds against each proteolytic enzyme was determined according to Zitnik et al., Biochem. Biophys. Res. Commun. 232, 687-697 (1997)).

A further experiment addresses T2, Human plasma thrombin (Homo sapiens, UniProt P00734).
T2 construct: from tissue; host or cells: human plasma
Description: Ki determination, human plasma thrombin (H-D-Phe-Pip-Arg-pNA). The settings on record: 50 mM Tris-HCl, pH 8.3, 100 mM NaCl, 1% BSA; read-out: Experimentally Determined Ki, Thrombin. As for the experimental part:
as §1, §2, §3, §4, §5, §6, §7, §8
Human plasma thrombin activity was determined by using H-D-Phe-Pip-Arg-pNA in 50 mM Tris-HCl, pH 8.3, 100 mM NaCl, 1% BSA (See Lottenberg, et al. Meth. Enzymol. 80, 341-361 (1981)).
as §9

The target in another experiment is T3, Human plasma factor Xa (Homo sapiens, UniProt P00742).
T3 construct: from tissue; host or cells: human plasma
Description: Ki determination, human plasma factor Xa (N-Benzoyl-Ile-Glu-Gly-Arg-pNA). The settings on record: 50 mM Tris-HCl, pH 7.8, 200 mM NaCl, 0.05% BSA; read-out: Experimentally Determined Ki, Factor Xa. As for the experimental part:
as §1, §2, §3, §4, §5, §6, §7, §8
Human plasma factor Xa activity was determined by using N-Benzoyl-Ile-Glu-Gly-Arg-pNA in 50 mM Tris-HCl, pH 7.8, 200 mM NaCl, 0.05% BSA (See Lottenberg, et al. Meth. Enzymol. 80, 341-361 (1981)).
as §9

In a further experiment the target is r-tissue kallikrein (Homo sapiens, UniProt P06870). Description: Ki determination, r-tissue kallikrein (DL-Val-Leu-Arg-pNA). The settings on record: 50 mM Tris-HCl, pH 7.8, 200 mM NaCl, 0.05% BSA; read-out: Experimentally Determined Ki, Tissue Kallikrein. As for the experimental part: as §1, §2, §3, §4, §5, §6, §7, §8
(§10) I. Human Plasma and r-Tissue Kallikrein
(§11) Human plasma and r-tissue kallikrein activity were determined in 50 mM Tris-HCl, pH 7.8, 200 mM NaCl, 0.05% BSA by using H-D-Prolyl-Phe-Arg-pNA and DL-Val-Leu-Arg-pNA, respectively (See Lottenberg, et al., Meth. Enzymol. 80, 341-361 (1981)).
as §9

For the next experiment, the target named is T4, Human plasma kallikrein (Homo sapiens, UniProt P03952).
T4 construct: from tissue; host or cells: human plasma
Description: Ki determination, human plasma kallikrein (H-D-Prolyl-Phe-Arg-pNA). The settings on record: 50 mM Tris-HCl, pH 7.8, 200 mM NaCl, 0.05% BSA; read-out: Experimentally Determined Ki, Plasma Kallikrein. The protocol: as §1, §2, §3, §4, §5, §6, §7, §8, §10, §11, §9

In a further experiment the target is T5, Human plasma plasmin (Homo sapiens, UniProt P00747).
T5 construct: from tissue; host or cells: human plasma
Kind of experiment: Ki determination, human plasma plasmin (Tosyl-Gly-Pro-Lys-pNA). The settings on record: 100 mM Tris-HCl, pH 7.4, 100 mM NaCl, 0.05% Triton X-100; read-out: Experimentally Determined Ki, Plasmin. The protocol: as §1, §2, §3, §4, §5, §6, §7, §8
Human plasma plasmin activity was determined by using Tosyl-Gly-Pro-Lys-pNAin 100 mM Tris-HCl, pH 7.4, 100 mM NaCl, 0.05% Triton X-100 (See Lottenberg, et al., Meth. Enzymol. 80, 341-361 (1981)).
as §9

In experiment [2] the target is T6, Human Neutrophil Cathepsin G (Homo sapiens, UniProt P08311).
T6 construct: from tissue; host or cells: human neutrophils
T6 sequence (P08311 21-255): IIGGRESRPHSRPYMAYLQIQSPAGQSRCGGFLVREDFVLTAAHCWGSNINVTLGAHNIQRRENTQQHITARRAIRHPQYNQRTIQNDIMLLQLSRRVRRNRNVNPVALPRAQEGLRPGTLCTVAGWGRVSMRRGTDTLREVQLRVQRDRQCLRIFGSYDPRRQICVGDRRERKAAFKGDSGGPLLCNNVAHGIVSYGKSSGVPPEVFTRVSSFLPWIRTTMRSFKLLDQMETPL
Kind of experiment: Ki determination, human neutrophil cathepsin G (N-Suc-Ala-Ala-Pro-Phe-pNA). The settings on record: 625 mM Tris-HCl, pH 7.5, 2.5 mM MgCl2, 0.125% Brij 35; read-out: Experimentally Determined Ki, Cathepsin G. The protocol: as §1, §2, §3, §4, §5, §6, §7, §8
Human Neutrophil Cathepsin G activity was determined by using N-Suc-Ala-Ala-Pro-Phe-pNA in 625 mM Tris-HCl, pH 7.5, 2.5 mM MgCl2, 0.125% Brij 35 (See Groutas et al., Arch. Biochem. Biophys. 294, 144-146 (1992)).
as §9

Experiment [3] concerns the target T7, Bovine Pancreatic Chymotrypsin (Bos taurus, UniProt P00766).
T7 construct: from tissue; host or cells: bovine pancreas
Kind of experiment: Ki determination, bovine pancreatic chymotrypsin (N-Suc-Ala-Ala-Pro-Phe-pNA). The settings on record: 100 mM Tris-HCl, pH 7.8, 10 mM CaCl2; read-out: Experimentally Determined Ki, Chymotrypsin. As for the experimental part: as §1, §2, §3, §4, §5, §6, §7, §8
Bovine Pancreatic Chymotrypsin activity was determined by using N-Suc-Ala-Ala-Pro-Phe-pNA in 100 mM Tris-HCl, pH 7.8, 10 mM CaCl2 (See Delmar, et al., J. Biochem. 85, 157-162 (1979)).
as §9

SMILES strings stand for the structures.

T5 sequence (P00747 581-810 limits assumed): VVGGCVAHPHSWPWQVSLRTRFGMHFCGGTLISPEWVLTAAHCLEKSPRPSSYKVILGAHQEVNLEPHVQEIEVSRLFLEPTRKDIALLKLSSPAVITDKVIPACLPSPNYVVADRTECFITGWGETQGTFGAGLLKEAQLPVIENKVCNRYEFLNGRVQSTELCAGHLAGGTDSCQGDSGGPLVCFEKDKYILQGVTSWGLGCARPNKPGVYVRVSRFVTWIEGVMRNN
T5 sequence (P00747 97-580 partner limits assumed): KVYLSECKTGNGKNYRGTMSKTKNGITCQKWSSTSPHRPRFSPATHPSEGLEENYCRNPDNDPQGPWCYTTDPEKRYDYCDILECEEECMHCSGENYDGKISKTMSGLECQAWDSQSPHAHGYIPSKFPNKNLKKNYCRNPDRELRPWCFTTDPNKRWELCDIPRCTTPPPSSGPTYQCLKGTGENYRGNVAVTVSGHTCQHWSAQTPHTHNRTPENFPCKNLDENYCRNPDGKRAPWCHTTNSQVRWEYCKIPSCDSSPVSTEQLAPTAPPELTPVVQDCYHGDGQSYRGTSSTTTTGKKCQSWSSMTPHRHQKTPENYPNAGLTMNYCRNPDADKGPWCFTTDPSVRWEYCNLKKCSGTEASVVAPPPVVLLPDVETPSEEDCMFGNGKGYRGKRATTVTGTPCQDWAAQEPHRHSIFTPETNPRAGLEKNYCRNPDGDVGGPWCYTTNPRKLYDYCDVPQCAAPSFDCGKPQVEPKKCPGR
r-tissue kallikrein, sequence (P06870 25-262): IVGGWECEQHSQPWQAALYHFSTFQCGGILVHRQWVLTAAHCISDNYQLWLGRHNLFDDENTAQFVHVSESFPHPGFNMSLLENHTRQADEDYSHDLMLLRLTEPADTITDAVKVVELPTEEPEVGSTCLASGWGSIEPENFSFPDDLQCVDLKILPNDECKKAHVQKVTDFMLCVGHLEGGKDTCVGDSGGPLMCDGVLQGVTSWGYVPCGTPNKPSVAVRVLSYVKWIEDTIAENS
T3 sequence (P00742 235-488 limits assumed): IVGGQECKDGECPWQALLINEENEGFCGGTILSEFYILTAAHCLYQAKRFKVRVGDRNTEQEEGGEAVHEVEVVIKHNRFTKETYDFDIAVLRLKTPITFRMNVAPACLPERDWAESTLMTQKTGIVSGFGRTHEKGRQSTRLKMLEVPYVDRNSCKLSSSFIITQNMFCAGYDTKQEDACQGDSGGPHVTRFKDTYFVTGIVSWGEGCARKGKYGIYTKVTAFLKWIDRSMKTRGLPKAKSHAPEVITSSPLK
T3 sequence (P00742 41-179 partner limits assumed): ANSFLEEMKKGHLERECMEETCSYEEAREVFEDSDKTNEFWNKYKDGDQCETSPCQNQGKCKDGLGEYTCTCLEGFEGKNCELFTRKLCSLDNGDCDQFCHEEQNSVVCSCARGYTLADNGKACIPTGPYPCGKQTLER
T4 sequence (P03952 391-638 limits assumed): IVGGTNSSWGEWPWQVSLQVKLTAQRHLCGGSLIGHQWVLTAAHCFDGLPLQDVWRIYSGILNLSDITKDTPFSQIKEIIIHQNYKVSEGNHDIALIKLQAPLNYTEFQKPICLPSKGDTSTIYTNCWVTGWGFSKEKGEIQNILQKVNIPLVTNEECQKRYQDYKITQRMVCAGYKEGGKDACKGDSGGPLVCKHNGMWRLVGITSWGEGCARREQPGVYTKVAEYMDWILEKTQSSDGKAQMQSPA
T4 sequence (P03952 20-390 partner limits assumed): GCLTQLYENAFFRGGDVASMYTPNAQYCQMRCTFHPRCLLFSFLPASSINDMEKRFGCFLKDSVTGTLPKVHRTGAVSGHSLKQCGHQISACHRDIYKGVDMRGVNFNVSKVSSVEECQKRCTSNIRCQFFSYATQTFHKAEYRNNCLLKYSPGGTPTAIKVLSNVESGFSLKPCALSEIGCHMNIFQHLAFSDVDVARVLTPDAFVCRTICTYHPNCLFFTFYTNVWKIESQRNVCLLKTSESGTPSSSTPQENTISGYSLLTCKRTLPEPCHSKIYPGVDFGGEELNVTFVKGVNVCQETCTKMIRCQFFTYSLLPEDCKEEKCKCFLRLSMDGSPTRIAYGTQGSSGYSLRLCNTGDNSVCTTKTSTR

As a reminder, the Ki is a dissociation constant, usually derived from enzyme kinetics or from competition with a known ligand. With `N=C(N)c1cccc(S(=O)(=O)NCc2ccc(OCCOc3ccc(CNS(=O)(=O)c4cccc(C(=N)N)c4)cc3)cc2)c1` [Example 51, 1,2-Bis-{4-[(3-carbamimidoyl-benzenesulfonylamino)-methyl]-phenoxy}-ethane], the Ki was 5.2 µM in experiment [1]; over 100 µM at Human plasma thrombin; 6.1 µM at Human plasma factor Xa; over 100 µM at r-tissue kallikrein; 12 µM on Human plasma kallikrein; 2 µM at Human plasma plasmin. Moreover, the Ki in experiment [2] and in experiment [3] was over 100 µM in each case.

As to `N=C(N)c1cccc(S(=O)(=O)NCc2ccc(COCc3ccc(CNS(=O)(=O)c4cccc(C(=N)N)c4)cc3)cc2)c1` [Example 53, 1,3-Bis-{4-[(3-carbamimidoyl-benzenesulfonylamino)-methyl]-phenyl}-2-oxapropane], the Ki was 3 µM in experiment [1]; over 100 µM at Human plasma thrombin; 16 µM on Human plasma factor Xa; over 100 µM on r-tissue kallikrein; 8.8 µM on Human plasma kallikrein; 10 µM at Human plasma plasmin. In addition, the Ki in experiment [2] and in experiment [3] was over 100 µM each time.

`N=C(N)c1ccc(C(=O)NCc2ccc(OCCCCCOc3ccc(CNC(=O)c4ccc(C(=N)N)cc4)cc3)cc2)cc1` [Example 54, 1,5-Bis-{4-[(4-carbamimidoyl-benzenecarbonylamino)-methyl]-phenoxy}-pentane]: the Ki is 0.91 µM in experiment [1]; over 100 µM on Human plasma thrombin; over 100 µM at Human plasma factor Xa; over 100 µM on r-tissue kallikrein; 16 µM at Human plasma kallikrein; 4.1 µM on Human plasma plasmin. Also, the Ki in experiment [2] and in experiment [3] was over 100 µM throughout.

Take `N=C(N)c1cccc(C(=O)NCc2ccc(OCCCCCOc3ccc(CNC(=O)c4cccc(C(=N)N)c4)cc3)cc2)c1` [Example 55, 1,5-Bis-{4-[(3-carbamimidoyl-benzenecarbonylamino)-methyl]-phenoxy}-pentane]: the Ki is 0.9 µM in experiment [1]; over 100 µM on Human plasma thrombin; 1.8 µM on Human plasma factor Xa; over 100 µM at r-tissue kallikrein; 11 µM at Human plasma kallikrein; 7.6 µM at Human plasma plasmin. Besides, the Ki in experiment [2] and in experiment [3] was over 100 µM throughout.

For `N=C(N)c1ccc(C(=O)NCc2ccc(OCCCCCCCOc3ccc(CNC(=O)c4ccc(C(=N)N)cc4)cc3)cc2)cc1` [Example 58, 1,7-Bis-{4-[(4-carbamimidoyl-benzenecarbonylamino)-methyl]-phenoxy}-heptane], the Ki is 1.5 µM in experiment [1]; over 100 µM on Human plasma thrombin; 20 µM on Human plasma factor Xa; over 100 µM at r-tissue kallikrein; 46 µM on Human plasma kallikrein; 3.8 µM on Human plasma plasmin. The Ki in experiment [2] and in experiment [3] was over 100 µM throughout.

As to `N=C(N)c1cccc(C(=O)NCc2ccc(OCCCCCCCOc3ccc(CNC(=O)c4cccc(C(=N)N)c4)cc3)cc2)c1` [Example 59, 1,7-Bis-{4-[(3-carbamimidoyl-benzenecarbonylamino)-methyl]-phenoxy}-heptane], the Ki was 1.1 µM in experiment [1]; over 100 µM at Human plasma thrombin; 8.3 µM at Human plasma factor Xa; over 100 µM at r-tissue kallikrein; 72 µM on Human plasma kallikrein; 8.7 µM on Human plasma plasmin. Moreover, the Ki in experiment [2] and in experiment [3] was over 100 µM in each case.

On to `N=C(N)c1ccc(C(=O)NCc2ccc(OCCCCOc3ccc(CNC(=O)c4ccc(C(=N)N)cc4)cc3)cc2)cc1` [Example 60, 1,4-Bis-{4-[(4-carbamimidoyl-benzenecarbonylamino)-methyl]-phenoxy}-butane], for which the Ki in experiment [1] is 1.5 µM; at Human plasma thrombin, over 100 µM; at Human plasma factor Xa, 17.7 µM; on r-tissue kallikrein it was over 100 µM; on Human plasma kallikrein, 6.3 µM; at Human plasma plasmin, 12 µM. Moreover, the Ki in experiment [2] and in experiment [3] was over 100 µM in each case.

As for `N=C(N)c1cccc(C(=O)NCc2ccc(OCCCCOc3ccc(CNC(=O)c4cccc(C(=N)N)c4)cc3)cc2)c1` [Example 61, 1,4-Bis-{4-[(3-carbamimidoyl-benzenecarbonylamino)-methyl]-phenoxy}-butane], the Ki in experiment [1] was 1.2 µM; on Human plasma thrombin it was over 100 µM; at Human plasma factor Xa it was 1 µM; at r-tissue kallikrein it was over 100 µM; at Human plasma kallikrein, 7.7 µM; at Human plasma plasmin, 6 µM. In addition, the Ki in experiment [2] and in experiment [3] was over 100 µM throughout.

Turning to `N=C(N)c1ccc(C(=O)NCc2ccc(OCCCOc3ccc(CNC(=O)c4ccc(C(=N)N)cc4)cc3)cc2)cc1` [Example 62, 1,3-Bis-{4-[(4-carbamimidoyl-benzoylamino)-methyl]-phenoxy}-propane], the Ki in experiment [1] is 2.4 µM; at Human plasma thrombin, over 100 µM; at Human plasma factor Xa it was 35 µM; at r-tissue kallikrein, over 100 µM; at Human plasma kallikrein it was 2.9 µM; on Human plasma plasmin, 11.6 µM. In addition, the Ki in experiment [2] and in experiment [3] was over 100 µM each time.

As to `N=C(N)c1ccc(C(=O)NCc2ccc(OCCOc3ccc(CNC(=O)c4ccc(C(=N)N)cc4)cc3)cc2)cc1` [Example 64, 1,2-Bis-{4-[(4-carbamimidoyl-benzoylamino)-methyl]-phenoxy}-ethane], the inhibition constant (Ki) in experiment [1] was 1.4 µM; on Human plasma thrombin it was over 100 µM; at Human plasma factor Xa it was 35.3 µM; at r-tissue kallikrein, over 100 µM; at Human plasma kallikrein it was 7.3 µM; at Human plasma plasmin it was 6.5 µM. In addition, the Ki in experiment [2] and in experiment [3] was over 100 µM each time.

Source of the values: patent US6221914A, “Sulfonamide bridging compounds that inhibit tryptase activity” (Array Biopharma Inc., priority 1998, dated 2001).
